Experiments:
HUV-EC-C cells (VEGF) = experiment: HUV-EC-C assay, VEGF-stimulated 3H-thymidine incorporation (HUVEC-VEGF); type: cell-based; conditions: Homo sapiens; Table 1
Protocol: (§1) The following protocol may also be used to measure a compound's activity against PDGF-R, FGF-R, VEGF, aFGF or Flk-1/KDR, all of which are naturally expressed by HUV-EC cells.
(§2) 1. […] After cells have detached from the flask, add an equal volume of assay medium and transfer to a 50 ml sterile centrifuge tube (Fisher Scientific, catalogue no. 05-539-6).
(§3) 2. Wash the cells with about 35 ml assay medium in the 50 ml sterile centrifuge tube by adding the assay medium, centrifuge for 10 minutes at approximately 200x g, aspirate the supernatant, and resuspend with 35 ml D-PBS. Repeat the wash two more times with D-PBS, resuspend the cells in about 1 ml assay medium/is cm^2 of tissue culture flask. Assay medium consists of F12K medium (Gibco BRL, catalogue no. 21127-014) and 0.5% heat-inactivated fetal bovine serum. Count the cells with a Coulter Counter® (Coulter Electronics, Inc.) and add assay medium to the cells to obtain a concentration of 0.8-1.0×10^5 cells/ml.
(§4) 3. Add cells to 96-well flat-bottom plates at 100 μl/well or 0.8-1.0×10^4 cells/well, incubate −24h at 37° C., 5% CO2.
(§5) 1. Make up two-fold test compound titrations in separate 96-well plates, generally 50 μM on down to 0 μM. Use the same assay medium as mentioned in day 0, step 2 above. Titrations are made by adding […] of test compound at 200 μM (4X the final well concentration) to the top well of a particular plate column. Since the stock test compound is usually 20 mM in DMSO, the 200 μM drug concentration contains 2% DMSO.
(§6) A diluent made up to 2% DMSO in assay medium (F12K+0.5% fetal bovine serum) is used as diluent for the test compound titrations in order to dilute the test compound but keep the DMSO concentration constant. Add this diluent to the remaining wells in the column at 60 μl/well. Take 60 μl from the 120 μl of 200 μM test compound dilution in the top well of the column and mix with the 60 μl in the second well of the column. Take 60 μl from this well and mix with the 60 μl in the third well of the column, and so on until two-fold titrations are completed. When the next-to-the-last well is mixed, take 60 μl of the 120 μl in this well and discard it. Leave the last well with 60 μl of DMSO/media diluent as a non-test compound-containing control. Make 9 columns of titrated test compound, enough for triplicate wells each for: (1) VEGF (obtained from Pepro Tech Inc., catalogue no. 100-200, (2) endothelial cell growth factor (ECGF) (also known as acidic fibroblast growth factor, or aFGF) (obtained from Boehringer Mannheim Biochemica, catalogue no. 1439 600), or, (3) human PDGF B/B (1276-956, Boehringer Mannheim, Germany) and assay media control. ECGF comes as a preparation with sodium heparin.
(§7) 2. Transfer 50 μl/well of the test compound dilutions to the 96-well assay plates containing the 0.8-1.0×10^4 cells/100 μl/well of the HUV-EC-C cells from day 0 and incubate […] at 37° C., 5% CO2.
(§8) 3. In triplicate, add 50 μl well of […] VEGF, 20 ng/ml ECGF, or media control to each test compound condition. As with the test compounds, the growth factor concentrations are 4X the desired final concentration. Use the assay media from day 0 step 2 to make the concentrations of growth factors. Incubate approximately 24 hours at 37° C., 5% CO2. Each well will have 50 μl test compound dilution, 50 μl growth factor or media, and 100 μl cells, which calculates to 200 μl/well total. Thus the 4X concentrations of test compound and growth factors become 1X once everything has been added to the wells.
(§9) 1. Add ^3H-thymidine (Amersham, catalogue no. TRK-686) at 1 μCi/well (10 μl/well of 100 μCi/ml solution made up in RPMI media +10% heat-inactivated fetal bovine serum) and incubate ˜24 h at 37° C., 5% CO2. RPMI is obtained from Gibco BRL, catalogue no. 11875-051.
(§10) 1. Freeze plates overnight at −20° C. […]

HUV-EC-C cells (aFGF) = experiment: HUV-EC-C assay, aFGF (ECGF)-stimulated 3H-thymidine incorporation (HUVEC-aFGF); type: cell-based; conditions: Homo sapiens; Table 1
Protocol: as §1, §2, §3, §4, §5, §6, §7, §8, §9, §10

Cc1cccc2c1/C(=C/c1[nH]c(C)c(CCC(=O)O)c1C)C(=O)N2 [Example 21, 3-[2,4-Dimethyl-5-(4-methyl-2-oxo-1,2-dihydroindol-3-ylidene-methyl)-1H-pyrrol-3-yl]-propionic acid]
IC50 (HUV-EC-C cells (VEGF)): 4000 nM | IC50 (HUV-EC-C cells (aFGF)): 5600 nM

Cc1c(CCC(=O)O)c[nH]c1/C=C1\C(=O)Nc2cc(-c3ccccc3)ccc21 [Example 33, 3-[4-Methyl-5-(2-oxo-6-phenyl-1,2-dihydro-indol3-ylidenemethyl)-1H-pyrrol-3-yl]-propionic acid]
IC50 (HUV-EC-C cells (VEGF)): 810 nM | IC50 (HUV-EC-C cells (aFGF)): 1000 nM

Cc1cccc2c1/C(=C/c1[nH]cc(CCC(=O)O)c1C)C(=O)N2 [Example 8, 3-[4-Methyl-5-(4-methyl-2-oxo-1,2-dihydroindol-3-ylidenemethyl)-1H-pyrrol-3-yl]-propionic acid]
IC50 (HUV-EC-C cells (VEGF)): 740 nM | IC50 (HUV-EC-C cells (aFGF)): 4520 nM

CCOc1cccc(-c2ccc3c(c2)NC(=O)/C3=C\c2[nH]c(C)c(CCC(=O)O)c2C)c1 [Example 30, 3-(5-[6-(3-Ethoxy-phenyl)-2-oxo-1,2-dihydroindol-3-ylidenemethyl]-2,4-dimethyl-1H-pyrrol-3-yl)-propionic acid]
IC50 (HUV-EC-C cells (VEGF)): 250 nM | IC50 (HUV-EC-C cells (aFGF)): 640 nM

Cc1[nH]c(/C=C2\C(=O)Nc3ccc(Cl)cc32)c(C)c1CCC(=O)O [Example 3, 3-[5-(5-Chloro-2-oxo-1,2-dihydroindol-3-ylidenemethyl)-2,4-dimethyl-1H-pyrrol-3-yl]-propionic acid]
IC50 (HUV-EC-C cells (VEGF)): 50 nM | IC50 (HUV-EC-C cells (aFGF)): 2800 nM

Cc1c(CCC(=O)O)c[nH]c1/C=C1\C(=O)Nc2ccc(I)cc21 [Example 7, 3-[5-(5-Iodo-2-oxo-1,2-dihydroindol-3-ylidenemethyl)-4-methyl-1H-pyrrol-3-yl]-propionic acid]
IC50 (HUV-EC-C cells (VEGF)): 1340 nM | IC50 (HUV-EC-C cells (aFGF)): 12300 nM

COc1cccc(-c2ccc3c(c2)NC(=O)/C3=C\c2[nH]c(C)c(CCC(=O)O)c2C)c1 [Example 27, 3-{5-[6-(3-Methoxy-phenyl)-2-oxo-1,2-dihydroindol-3-ylidenemethyl]-2,4-dimethyl-1H-pyrrol-3-yl}-propionic acid]
IC50 (HUV-EC-C cells (VEGF)): 990 nM | IC50 (HUV-EC-C cells (aFGF)): 1500 nM

Cc1c(CCC(=O)O)c[nH]c1/C=C1\C(=O)Nc2cc(Br)ccc21 [Example 28, 3-[5-(6-Bromo-2-oxo-1,2-dihydroindol-3-ylidenemethyl)-4-methyl-1H-pyrrol-3-yl]-propionic acid]
IC50 (HUV-EC-C cells (VEGF)): 150 nM | IC50 (HUV-EC-C cells (aFGF)): 1900 nM

Cc1c(CCC(=O)O)c[nH]c1/C=C1\C(=O)Nc2ccc(Cl)cc21 [Example 1, 3-[5-(5-Chloro-2-oxo-1,2-dihydroindol-3-ylidenemethyl)-4-methyl-1H-pyrrol-3-yl]-propionic acid]
IC50 (HUV-EC-C cells (VEGF)): 380 nM | IC50 (HUV-EC-C cells (aFGF)): 21400 nM

Cc1[nH]c(/C=C2\C(=O)Nc3cc(-c4ccccc4)ccc32)c(C)c1CCC(=O)O [Example 32, 3-[2,4-Dimethyl-5-(2-oxo-6-phenyl-1,2-dihydroindol-3-ylidenemethyl)-1H-pyrrol-3-yl]-propionic acid]
IC50 (HUV-EC-C cells (VEGF)): 10000 nM | IC50 (HUV-EC-C cells (aFGF)): 10000 nM

COc1cccc(-c2ccc3c(c2)NC(=O)/C3=C\c2[nH]cc(CCC(=O)O)c2C)c1 [Example 29, 3-{5-[6-(3-Methoxy-phenyl)-2-oxo-1,2-dihydroindol-3-ylidenemethyl]-4-methyl-1N-pyrrol-3-yl}-propionic acid]
IC50 (HUV-EC-C cells (VEGF)): 180 nM | IC50 (HUV-EC-C cells (aFGF)): 130 nM

Cc1c(CCC(=O)O)c[nH]c1/C=C1\C(=O)Nc2cc(Cl)ccc21 [Example 11, 3-[5-(6-Chloro-2-oxo-1,2-dihydroindol-3-ylidenemethyl)-4-methyl-1H-pyrrol-3-yl]-propionic acid]
IC50 (HUV-EC-C cells (VEGF)): 1400 nM | IC50 (HUV-EC-C cells (aFGF)): 9600 nM

Cc1c(CCC(=O)O)c[nH]c1/C=C1\C(=O)Nc2ccccc21 [Example 4, 3-[4-Methyl-5-(2-oxo-l,2-dihydroindol-3-ylidenemethyl)-1H-pyrrol-3-yl]-propionic acid]
IC50 (HUV-EC-C cells (VEGF)): 110 nM | IC50 (HUV-EC-C cells (aFGF)): 7100 nM

Cc1[nH]c(/C=C2\C(=O)Nc3ccc(Br)cc32)c(C)c1CCC(=O)O [Example 19, 3-[5-(5-Bromo-2-oxo-1,2-dihydroindol-3-ylidenemethyl)-2,4-dimethyl-1H-pyrrol-3-yl]-propionic acid]
IC50 (HUV-EC-C cells (VEGF)): 70 nM | IC50 (HUV-EC-C cells (aFGF)): 3600 nM

CCOc1cccc(-c2ccc3c(c2)NC(=O)/C3=C\c2[nH]cc(CCC(=O)O)c2C)c1 [Example 31, 3-{5-[6-(3-Ethoxy-phenyl)-2-oxo-1,2-dihydroindol-3-ylidenemethyl]-4-methyl-1H-pyrrol-3-yl}-propionic acid]
IC50 (HUV-EC-C cells (VEGF)): 90 nM | IC50 (HUV-EC-C cells (aFGF)): 180 nM

COc1ccc2c(c1)NC(=O)/C2=C\c1[nH]cc(CCC(=O)O)c1C [Example 2, 3-[5-(6-Methoxy-2-oxo-1,2-dihydroindol-3-ylidenemethyl)-4-methyl-1H-pyrrol-3-yl]-propionic acid]
IC50 (HUV-EC-C cells (VEGF)): 1600 nM | IC50 (HUV-EC-C cells (aFGF)): 31600 nM

Cc1c(CCC(=O)O)c[nH]c1/C=C1\C(=O)Nc2ccc(Br)cc21 [Example 6, 3-[5-(5-Bromo-2-oxo-1,2-dihydroindol-3-ylidenemethyl)-4-methyl-1H-pyrrol-3-yl]-propionic acid]
IC50 (HUV-EC-C cells (VEGF)): 630 nM | IC50 (HUV-EC-C cells (aFGF)): 18400 nM

COc1ccc2c(c1)/C(=C/c1[nH]cc(CCC(=O)O)c1C)C(=O)N2 [Example 18, 3-[5-(5-Methoxy-2-oxo-1,2-dihydroindol-3-ylidenemethyl)-4-methyl-1H-pyrrol-3-yl]-propionic acid]
IC50 (HUV-EC-C cells (VEGF)): 2400 nM | IC50 (HUV-EC-C cells (aFGF)): 18400 nM

CCc1ccc2c(c1)/C(=C/c1[nH]cc(CCC(=O)O)c1C)C(=O)N2 [Example 17, 3-[5-(5-Ethyl-2-oxo-1,2-dihydro-indol-3-ylidenemethyl)-4-methyl-1H-pyrrol-3-yl]-propionic acid]
IC50 (HUV-EC-C cells (VEGF)): 1200 nM | IC50 (HUV-EC-C cells (aFGF)): 20000 nM

COc1ccc2c(c1)NC(=O)/C2=C\c1[nH]c(C)c(CCC(=O)O)c1C [Example 24, 3-[5-(6-Methoxy-2-oxo-1,2-dihydroindol-3-ylidenemethyl)-2,4-dimethyl-1H-pyrrol-3-yl]-propionic acid]
IC50 (HUV-EC-C cells (VEGF)): 670 nM | IC50 (HUV-EC-C cells (aFGF)): 25100 nM

Cc1ccc2c(c1)/C(=C/c1[nH]c(C)c(CCC(=O)O)c1C)C(=O)N2 [Example 22, 3-[2,4-Dimethyl-5-(5-methyl-2-oxo-1,2-dihydroindol-3-ylidenemethyl)-1H-pyrrol-3-yl]-propionic acid]
IC50 (HUV-EC-C cells (VEGF)): 130 nM | IC50 (HUV-EC-C cells (aFGF)): 15800 nM

COC(=O)c1ccc2c(c1)/C(=C/c1[nH]cc(CCC(=O)O)c1C)C(=O)N2 [Example 12, 3-[4-(2-Carboxyethyl)-3-methyl-1H-pyrrol-2-ylmethylene]-2-oxo-2,3-dihydro-1H-indole-5-carboxylic acid methyl ester]
IC50 (HUV-EC-C cells (VEGF)): 11000 nM | IC50 (HUV-EC-C cells (aFGF)): 24600 nM

COc1cc2c(cc1OC)/C(=C/c1[nH]cc(CCC(=O)O)c1C)C(=O)N2 [Example 10, 3-[5-(5,6-Dimethoxy-2-oxo-1,2-dihydroindol-3-ylidenemethyl)-4-methyl-1H-pyrrol-3-yl]-propionic acid]
IC50 (HUV-EC-C cells (VEGF)): 10600 nM | IC50 (HUV-EC-C cells (aFGF)): > 50000 nM

Cc1[nH]c(/C=C2\C(=O)Nc3cc(O)ccc32)c(C)c1CCC(=O)O [Example 23, 3-[5-(6-Hydroxy-2-oxo-1,2-dihydroindol-3-ylidenemethyl)-2,4-dimethyl-1H-pyrrol-3-yl]-propionic acid]
IC50 (HUV-EC-C cells (VEGF)): 3000 nM | IC50 (HUV-EC-C cells (aFGF)): 1100 nM

Cc1ccc2c(c1)/C(=C/c1[nH]cc(CCC(=O)O)c1C)C(=O)N2 [Example 9, 3-[4-Methyl-5-(5-methyl-2-oxo-1,2-dihydroindol-3-ylidenemethyl)-1H-pyrrol-3-yl]-propionic acid]
IC50 (HUV-EC-C cells (VEGF)): 330 nM | IC50 (HUV-EC-C cells (aFGF)): 13400 nM

Source: patent publication US7119090B2, “Pyrrole substituted 2-indolinone protein kinase inhibitors” (Sugen, Inc., priority 1998, dated 2006)
